Paper PMC8282797, “Strictly regulated agonist-dependent activation of AMPA-R is the key characteristic of TAK-653 for robust synaptic responses and cognitive improvement” (Scientific Reports, 2021)
pEC50: −log10 of the molar value. Like-named read-outs stand apart in the source and are kept apart here.

Legend:
naïve rats = assay: Novel object recognition (NOR) test; assay type: in vivo, rat; details: for NORT (effective doses): summary
Method: NOR tests were performed using male Long-Evans rats at 6 weeks old as previously described, with some modifications. On day 1, rats were allowed to habituate to the empty test box (a gray-colored polyvinyl chloride box (40 × 40 × 50 cm)) for 10 min individually. Testing comprised two 3-min trials called the acquisition trial and the retention trial that were separated by 48 h inter-trial intervals (ITIs). On day 2, in the acquisition trial, rats were allowed to explore two identical objects (A1 and A2) for 3 min. On day 4, in the retention trial, rats were again allowed to explore a familiar object (A3) and a novel object (B) for 3 min. The object exploration was defined as rats' licking, sniffing or touching the object with forelimbs while sniffing. TAK-653 or AMPA was orally or intraperitoneally, respectively, 2 h or 0.5 h prior to the acquisition and the retention trials. The NDI was calculated using the following equation: novel object interaction/total interaction × 100 (%).

AMPA-R = assay: Whole-cell patch clamp recording using rat primary hippocampal neurons; assay type: cell-based; set-up: key to Single effect on AMPA-R currents: -: No effect or slight effect; +: Potent; ++: Very potent; details: for Single effect on AMPA-R currents: summary grade
Method: Whole-cell patch clamp recording using primary neurons between 11 and 20 days in vitro was performed as previously described. Patch electrodes with tip resistances ranging from 3 to 5 MΩ were filled with an intracellular solution containing: 135 mM CsCl, 1 mM MgCl2, 10 mM HEPES, 10 mM EGTA, 4 mM MgATP, and 0.3 mM Na2GTP, adjusted to pH7.3 with CsOH (osmolality 275–295 mosm/L). The extracellular solution contained: 140 mM NaCl, 4 mM KCl, 2 mM CaCl2, 1 mM MgCl2, 10 mM HEPES, 5 mM NaHCO3, 10 mM D( +)-glucose, and 0.001 mM TTX, adjusted to pH7.4 with NaOH (osmolality 300–315 mosm/L). All experiments were carried out at room temperature. Neurons were voltage-clamped at − 80 mV. Steady-state inward currents were evoked by the application of AMPA and AMPA potentiator via Y-tube perfusion system. Signals were recorded using a Multiclamp 700B amplifier (Molecular Devices, LLC, Orleans Drive Sunnyvale, CA), digitized using a Digidata 1440A interface board, filtered between 2 kHz, sampled at 10 kHz, and analyzed with pClamp10 software. Details are described in the Supplementary Information.
Whole-cell patch clamp technique was used for recording current from cultured rat hippocampal neurons between 11-20 days in vitro. Patch electrodes with tip resistances ranging from 3 to 5 MΩ were filled with an intracellular solution containing: 135 mM CsCl, 1 mM MgCl2, 10 mM HEPES, 10 mM EGTA, 4 mM Mg-ATP, 0.3 mM Na2-GTP, adjusted to pH7.3 with CsOH (osmolality 275-295 mosm/L). The extracellular solution contained: 140 mM NaCl, 4 mM KCl, 2 mM CaCl2, 1 mM MgCl2, 10 mM HEPES, 5 mM NaHCO3, 10 mM D(+)-glucose, and 0.001 mM TTX, adjusted to pH7.4 with NaOH (osmolality 300-315 mosm/L). All experiments were carried out at room temperature and performed using an Axopatch-1D amplifier with pCLAMP 9 software (Molecular Devices, LLC, Orleans Drive Sunnyvale, CA), low-pass filtered at 2 kHz, and stored on the computer hard-disk for off-line analysis. Neurons were voltage-clamped at –80mV. Steady-state inward currents were evoked by the application of AMPA and AMPA potentiator via Y-tube perfusion system. AMPA-R potentiator was applied 20 s prior to 10-s AMPA stimulus. The current at all drug concentrations tested was normalized by the steady-state current induced by 1 μM AMPA. In the absence of AMPA, the maximum current during 60-s application of AMPA-R potentiator was normalized by the steady-state current induced by 100 μM AMPA.

Row | SMILES | Cognitive performance in the NOR test (naïve rats; 0.3 to 3 mg/kg, i.p.) | NORT (effective doses) (naïve rats) | pEC50 (AMPA-R; single application, read-out: EC50, increase of AMPA-R-mediated currents) | Single effect on AMPA-R currents (AMPA-R) | Novelty discrimination index (NDI) (naïve rats; 0.03, 0.1 and 0.3 mg/kg, p.o., 2 h prior to trials) | Dose improving visual learning and memory in NOR test (naïve rats; p.o., rats) [mg/kg] | Potency relative to LY451646 in potentiation of AMPA-elicited currents (times less potent) (AMPA-R) [times] | AMPA-R currents, Agonistic effect @30 μM (AMPA-R; absence of AMPA, % of AMPA (100 μM)-induced steady-state response) [%] | pEC50 (AMPA-R; in the presence of 1 μM AMPA, read-out: AMPA-R currents, Potentiation EC50)
1 | Cc1onc(O)c1CC(N)C(=O)O (stereo not drawn) [AMPA, alpha-amino-3-hydroxy-5-methyl-4-isoxazole-propionic acid] | did not improve | No effect | 4.35 | ++ | – | – | – | – | –
2 | CC1=CN2CCS(=O)(=O)N=C2C(c2ccc(OC3CCCCC3)cc2)=N1 [TAK-653, 9-[4-(Cyclohexyloxy)phenyl]-7-methyl-3,4-dihydropyrazino[2,1-c][1,2,4]thiadiazine 2,2-dioxide] | – | Effective (0.03, 0.1, 0.3) | – | ─ | significantly improved | ≥ 0.03 | 2.3 | 1.7 | 5.36
